From patent US9695155B2, “Herbicidal substituted pyrimidinyloxy benzene compounds” (E. I. DU PONT DE NEMOURS AND COMPANY, priority 2013, dated 2017)

Columns and labels:
galium [1] = experiment: Test A postemergence; type: in vivo, Galium aparine
Outline: (§1)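 Injury scores run from 0, no effect, to 100, complete control, judged by eye against untreated plants roughly 10 days after treatment. Chemicals carried a surfactant in a non-phytotoxic solvent and went onto loam–sand soil preemergence or onto one- to two-leaf seedlings postemergence.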

Italian ryegrass = experiment: Test A preemergence; type: in vivo, Lolium multiflorum; conditions: for Ryegrass, Italian plant response rating: 500 g ai/ha
Outline: as §1

pigweed = experiment: Test C preemergence; type: in vivo, Amaranthus retroflexus; conditions: for Pigweed plant response rating: preemergence; for Plant response rating, Pigweed: Preemergence, scale 0 to 100, 0 no effect, 100 complete control
Outline: (§2)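 Visual injury score versus untreated controls, 0 = no effect, 100 = complete control, taken 13 to 15 days after treatment in the greenhouse. Pre-emergence pots held loam/sand; post-emergence plants grew in sphagnum peat/vermiculite mix and were sprayed at the 1- to 4-leaf stage.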

giant foxtail = experiment: Test C preemergence; type: in vivo, Setaria faberii; conditions: for Foxtail, Giant plant response rating: preemergence; for Plant response rating, Foxtail, Giant: Preemergence, scale 0 to 100, 0 no effect, 100 complete control
Outline: as §2

blackgrass = experiment: Test A postemergence; type: in vivo, Alopecurus myosuroides
Outline: as §1

kochia = experiment: Test A preemergence; type: in vivo, Kochia scoparia; conditions: for Kochia plant response rating: 500 g ai/ha
Outline: as §1

lambsquarters = experiment: Test C preemergence; type: in vivo, Chenopodium album; conditions: for Lambsquarters plant response rating: preemergence; for Plant response rating, Lambsquarters: Preemergence, scale 0 to 100, 0 no effect, 100 complete control
Outline: as §2

waterhemp = experiment: Test C preemergence; type: in vivo, Amaranthus rudis; conditions: for Waterhemp plant response rating: preemergence; for Plant response rating, Waterhemp: Preemergence, scale 0 to 100, 0 no effect, 100 complete control
Outline: as §2

wheat, winter = experiment: Test C preemergence; type: in vivo, Triticum aestivum; conditions: for Wheat plant response rating: preemergence; for Plant response rating, Wheat: Preemergence, scale 0 to 100, 0 no effect, 100 complete control
Outline: as §2

ragweed = experiment: Test A preemergence; type: in vivo, Ambrosia elatior; conditions: for Ragweed plant response rating: 500 g ai/ha
Outline: as §1

large (Lg) crabgrass = experiment: Test C preemergence; type: in vivo, Digitaria sanguinalis; conditions: for Crabgrass, Large plant response rating: preemergence; for Plant response rating, Crabgrass, Large: Preemergence, scale 0 to 100, 0 no effect, 100 complete control
Outline: as §2

velvetleaf = experiment: Test C preemergence; type: in vivo, Abutilon theophrasti; conditions: for Velvetleaf plant response rating: preemergence; for Plant response rating, Velvetleaf: Preemergence, scale 0 to 100, 0 no effect, 100 complete control
Outline: as §2

galium [2] = experiment: Test C preemergence; type: in vivo, Galium aparine; conditions: for Galium plant response rating: preemergence; for Plant response rating, Galium: Preemergence, scale 0 to 100, 0 no effect, 100 complete control
Outline: as §2

corn = experiment: Test C preemergence; type: in vivo, Zea mays; conditions: for Corn plant response rating: preemergence; for Plant response rating, Corn: Preemergence, scale 0 to 100, 0 no effect, 100 complete control
Outline: as §2

[3] = 125 g ai/ha, 0 to 100 scale where 0 is no effect and 100 is complete control
[4] = 500 g ai/ha, 0 to 100 scale where 0 is no effect and 100 is complete control
[5] = 0 to 100 scale, 0 no effect, 100 complete control, approx. 10 days
[6] = 16 g ai/ha, scale 0 to 100 (0 no effect, 100 complete control)
[7] = 62 g ai/ha, scale 0 (no effect) to 100 (complete control)
[8] = 125 g ai/ha, scale 0 (no effect) to 100 (complete control)
[9] = 125 g ai/ha, 0 to 100 scale, 0 no effect, 100 complete control
[10] = 0 to 100 scale where 0 is no effect and 100 is complete control

CC(C)c1cnn(-c2c(C#N)cccc2Oc2ncc(Cl)cn2)c1 [Compound 85]
Plant response rating, Galium (galium [1]; [3]): 90 | Plant response rating, Galium (galium [1]; [4]): 100 | Plant response rating, Ryegrass, Italian (Italian ryegrass; [3]): 0 | Ryegrass, Italian plant response rating (Italian ryegrass; [5]): 40 | Pigweed plant response rating (pigweed; [6]): 50 | Pigweed plant response rating (pigweed; [7]): 100 | Pigweed plant response rating (pigweed; [8]): 100 | Plant response rating, Pigweed (pigweed; 31 g ai/ha): 40 | Foxtail, Giant plant response rating (giant foxtail; [6]): 20 | Foxtail, Giant plant response rating (giant foxtail; [7]): 90 | Foxtail, Giant plant response rating (giant foxtail; [8]): 100 | Plant response rating, Foxtail, Giant (giant foxtail; 31 g ai/ha): 35 | Plant response rating, Blackgrass (blackgrass; [3]): 70 | Plant response rating, Blackgrass (blackgrass; 500 g ai/ha, 0 to 100 scale, 0 no effect, 100 complete control): 80 | Plant response rating, Kochia (kochia; [3]): 80 | Kochia plant response rating (kochia; [5]): 100 | Lambsquarters plant response rating (lambsquarters; [6]): 65 | Lambsquarters plant response rating (lambsquarters; [7]): 100 | Lambsquarters plant response rating (lambsquarters; [8]): 100 | Plant response rating, Lambsquarters (lambsquarters; 31 g ai/ha): 100 | Waterhemp plant response rating (waterhemp; [6]): 55 | Waterhemp plant response rating (waterhemp; [7]): 100 | Waterhemp plant response rating (waterhemp; [8]): 100 | Plant response rating, Waterhemp (waterhemp; 31 g ai/ha): 85 | Wheat plant response rating (wheat, winter; [6]): 0 | Wheat plant response rating (wheat, winter; [7]): 0 | Wheat plant response rating (wheat, winter; [8]): 5 | Plant response rating, Wheat (wheat, winter; 31 g ai/ha): 0 | Plant response rating, Ragweed (ragweed; [3]): 40 | Ragweed plant response rating (ragweed; [5]): 60 | Crabgrass, Large plant response rating (large (Lg) crabgrass; [6]): 65 | Crabgrass, Large plant response rating (large (Lg) crabgrass; [7]): 100 | Crabgrass, Large plant response rating (large (Lg) crabgrass; [8]): 100 | Plant response rating, Crabgrass, Large (large (Lg) crabgrass; 31 g ai/ha): 90 | Velvetleaf plant response rating (velvetleaf; [6]): 35 | Velvetleaf plant response rating (velvetleaf; [7]): 100 | Velvetleaf plant response rating (velvetleaf; [8]): 100 | Plant response rating, Velvetleaf (velvetleaf; 31 g ai/ha): 80 | Galium plant response rating (galium [2]; [6]): 0 | Galium plant response rating (galium [2]; [7]): 50 | Galium plant response rating (galium [2]; [8]): 85 | Plant response rating, Galium (galium [2]; 31 g ai/ha): 0 | Corn plant response rating (corn; [6]): 5 | Corn plant response rating (corn; [7]): 5 | Corn plant response rating (corn; [8]): 45 | Plant response rating, Corn (corn; 31 g ai/ha): 10

N#Cc1cnn(-c2c(Oc3ncc(F)cn3)cccc2C(F)F)c1 [Compound 240]
Plant response rating, Galium (galium [1]; [9]): 100 | Plant response rating, Galium (galium [1]; [4]): 100 | Ryegrass, Italian plant response rating (0 to 100 scale) (Italian ryegrass; 125 g ai/ha): 20 | Ryegrass, Italian plant response rating (Italian ryegrass; [10]): 70 | Pigweed plant response rating (pigweed; [6]): 5 | Pigweed plant response rating (pigweed; [8]): 65 | Plant response rating, Pigweed (pigweed; 62 g ai/ha): 55 | Foxtail, Giant plant response rating (giant foxtail; [6]): 10 | Foxtail, Giant plant response rating (giant foxtail; [8]): 100 | Plant response rating, Foxtail, Giant (giant foxtail; 62 g ai/ha): 100 | Plant response rating, Blackgrass (blackgrass; [9]): 90 | Plant response rating, Blackgrass (blackgrass; [4]): 100 | Kochia plant response rating (0 to 100 scale) (kochia; 125 g ai/ha): 100 | Kochia plant response rating (kochia; [10]): 100 | Lambsquarters plant response rating (lambsquarters; [6]): 70 | Lambsquarters plant response rating (lambsquarters; [8]): 100 | Plant response rating, Lambsquarters (lambsquarters; 62 g ai/ha): 100 | Waterhemp plant response rating (waterhemp; [6]): 50 | Waterhemp plant response rating (waterhemp; [8]): 100 | Plant response rating, Waterhemp (waterhemp; 62 g ai/ha): 100 | Wheat plant response rating (wheat, winter; [6]): 0 | Wheat plant response rating (wheat, winter; [8]): 5 | Plant response rating, Wheat (wheat, winter; 62 g ai/ha): 0 | Ragweed plant response rating (0 to 100 scale) (ragweed; 125 g ai/ha): 90 | Ragweed plant response rating (ragweed; [10]): 100 | Crabgrass, Large plant response rating (large (Lg) crabgrass; [6]): 75 | Crabgrass, Large plant response rating (large (Lg) crabgrass; [8]): 100 | Plant response rating, Crabgrass, Large (large (Lg) crabgrass; 62 g ai/ha): 100 | Velvetleaf plant response rating (velvetleaf; [6]): 25 | Velvetleaf plant response rating (velvetleaf; [8]): 85 | Plant response rating, Velvetleaf (velvetleaf; 62 g ai/ha): 80 | Galium plant response rating (galium [2]; [6]): 5 | Galium plant response rating (galium [2]; [8]): 100 | Plant response rating, Galium (galium [2]; 62 g ai/ha): 100 | Corn plant response rating (corn; [6]): 5 | Corn plant response rating (corn; [8]): 35 | Plant response rating, Corn (corn; 62 g ai/ha): 5

Cc1cnc(Oc2cccc(C#N)c2-n2cc(C#N)cn2)nc1 [Compound 90]
Plant response rating, Galium (galium [1]; [3]): 90 | Plant response rating, Galium (galium [1]; [4]): 100 | Plant response rating, Ryegrass, Italian (Italian ryegrass; [3]): 0 | Ryegrass, Italian plant response rating (Italian ryegrass; [5]): 30 | Pigweed plant response rating (pigweed; [6]): 40 | Pigweed plant response rating (pigweed; [7]): 98 | Pigweed plant response rating (pigweed; [8]): 100 | Plant response rating, Pigweed (pigweed; 31 g ai/ha): 85 | Foxtail, Giant plant response rating (giant foxtail; [6]): 5 | Foxtail, Giant plant response rating (giant foxtail; [7]): 75 | Foxtail, Giant plant response rating (giant foxtail; [8]): 100 | Plant response rating, Foxtail, Giant (giant foxtail; 31 g ai/ha): 45 | Plant response rating, Blackgrass (blackgrass; [3]): 50 | Plant response rating, Blackgrass (blackgrass; [4]): 70 | Plant response rating, Kochia (kochia; [3]): 100 | Kochia plant response rating (kochia; [5]): 100 | Lambsquarters plant response rating (lambsquarters; [6]): 100 | Lambsquarters plant response rating (lambsquarters; [7]): 100 | Lambsquarters plant response rating (lambsquarters; [8]): 100 | Plant response rating, Lambsquarters (lambsquarters; 31 g ai/ha): 98 | Waterhemp plant response rating (waterhemp; [6]): 85 | Waterhemp plant response rating (waterhemp; [7]): 100 | Waterhemp plant response rating (waterhemp; [8]): 100 | Plant response rating, Waterhemp (waterhemp; 31 g ai/ha): 100 | Wheat plant response rating (wheat, winter; [6]): 0 | Wheat plant response rating (wheat, winter; [7]): 0 | Wheat plant response rating (wheat, winter; [8]): 0 | Plant response rating, Wheat (wheat, winter; 31 g ai/ha): 0 | Plant response rating, Ragweed (ragweed; [3]): 50 | Ragweed plant response rating (ragweed; [5]): 80 | Crabgrass, Large plant response rating (large (Lg) crabgrass; [6]): 25 | Crabgrass, Large plant response rating (large (Lg) crabgrass; [7]): 98 | Crabgrass, Large plant response rating (large (Lg) crabgrass; [8]): 100 | Plant response rating, Crabgrass, Large (large (Lg) crabgrass; 31 g ai/ha): 98 | Velvetleaf plant response rating (velvetleaf; [6]): 35 | Velvetleaf plant response rating (velvetleaf; [7]): 98 | Velvetleaf plant response rating (velvetleaf; [8]): 100 | Plant response rating, Velvetleaf (velvetleaf; 31 g ai/ha): 65 | Galium plant response rating (galium [2]; [6]): 5 | Galium plant response rating (galium [2]; [7]): 100 | Galium plant response rating (galium [2]; [8]): 98 | Plant response rating, Galium (galium [2]; 31 g ai/ha): 5 | Corn plant response rating (corn; [6]): 0 | Corn plant response rating (corn; [7]): 10 | Corn plant response rating (corn; [8]): 45 | Plant response rating, Corn (corn; 31 g ai/ha): 0
